The values below come from ChEMBL document CHEMBL1157539, “Thousands of chemical starting points for antimalarial lead identification” (Nature, 2010).

The experiment deals with Plasmodium falciparum. Description: GSK_TCMDC: Inhibition of Plasmodium falciparum 3D7 in whole erythrocytes, using parasite LDH activity as an index of growth. Type of experiment: functional, organism-based. The following applies: Plasmodium falciparum, 3D7.
In turn, `COc1ccc2[nH]cc(C3=CCN(Cc4ccccc4)CC3)c2c1` registered an XC50 of 569 nM.
The molecule `ON=C1CCc2cc(-c3cc(-c4ccc(OC5CCNCC5)cc4)oc3-c3ccncc3)ccc21` gave an XC50 of 157 nM.
The value for `CCN(CC)CCNc1ccnc2[nH]c3ccc(C)cc3c12` was 669 nM; that for `Nc1c(Cl)cc(C(O)CNCCCCCOCCCc2ccc3ncccc3c2)cc1Cl` (configuration not stated) was 978 nM.
To `N#Cc1ccc(N/C(=N\c2cccc(Cl)c2Cl)NC2Cc3ccccc3C2)c(O)c1` belongs 832 nM; to `COCCCNC(=O)[C@H]1CNCCN1C(=O)c1ccccc1`, 802 nM.
`CN(C)CCNCc1cccc(-c2ccc3c(Nc4cc(O)c(Cl)cc4F)ccnc3c2)c1` had an XC50 of 549 nM.
To `CC(C)n1nc(C(=O)N2CCN(c3ccccc3)CC2)c2ccccc2c1=O` belongs 979 nM; to `CNC(=O)COC(=O)c1c2c(nc3ccccc13)C(=Cc1ccc3c(c1)OCO3)CCC2`, 643 nM; to `CC(C)(C)c1ccc(-c2cc3c(ccc4nc(N)nc(N)c43)[nH]2)cc1`, 113 nM.
The value for `CCOc1ccc(Nc2ccc3nonc3c2S(=O)(=O)Nc2ccc(OCC)cc2)cc1` was 505 nM; that for `O=C(Nc1nc(-c2cc(F)ccc2F)cs1)c1cncc(Br)c1` was 1080 nM.
To `Cc1nc(-c2cccc(Nc3ccnc4cc(-c5nccs5)ccc34)c2)no1` belongs 322 nM; to `N=C(N)NC(=O)Nc1cc(Br)c(Br)c(Br)c1`, 809 nM; to `COc1ccc(-c2nc3cc4ccccc4nc3[nH]2)c(OCC(O)CNC(C)C)c1` (configuration not stated), 694 nM.
As to `OCC1CCN(Cc2cccc(-c3cccc(-c4nc5cc(C(F)(F)F)ccc5[nH]4)c3)c2)CC1`, the XC50 was 506 nM.
To `Cc1ccc(C2CCN(CCCCNC(=O)c3ccc(-c4ccc(C#N)cc4)cc3)CC2)c(O)c1` belongs 292 nM.
To `COc1ccc2ncc(F)c([C@H](O)CN3CCC(NCc4cc5c(cn4)OCCO5)CC3)c2c1` belongs 292 nM.
To `CCCCCCc1cc(Oc2c(I)cc(C[C@H](N)C(=O)O)cc2I)ccc1O` belongs 906 nM.
`CC[C@@H]([C@@H](CC(C)C)C(=O)N[C@@H](CCCCNC(=O)OCc1ccccc1)C(=O)Nc1ccccn1)N(O)C=O` showed an XC50 of 108 nM.
The value for `O=C(NCCCCN1CCC(c2ccc3ccccc3c2)CC1)c1ccc(NC(=O)c2ccc(Cl)cc2)cc1` was 226 nM; that for `CCCc1cn2c3c(cc(C(=O)N[C@@H](Cc4ccccc4)[C@H](O)CNC4CCOCC4)cc13)N(C)S(=O)(=O)CC2` was 47.7 nM.
For `NC1CCN(c2cnn(Cc3cccc(NC(=O)Nc4ccc(-c5ccccc5)cc4)c3)c(=O)c2Cl)CC1`, the XC50 came out at 1140 nM.
To `COCCNCc1cccc(-c2ccc3c(Nc4ccc(Oc5ccccc5)cc4)ccnc3c2)c1` belongs 517 nM; to `N=C(N)NN=Cc1c2ccccc2c(Cl)c2cc(Cl)ccc12`, 791 nM.
For the molecule `CCN(c1cc(C)nc(Nc2ccc(Cl)cc2)n1)[C@H]1CCN(Cc2ccccc2)C1`, the XC50 was 855 nM.
To `COc1cccc2c(NN=Cc3cccc(F)c3)ccnc12` belongs 932 nM; to `O=[N+]([O-])c1cccc(CNCC2CCN(Cc3ccc(Cl)c(Cl)c3)CC2)c1`, 913 nM; to `CCCCCCC(C)c1cc(O)c2c(c1)OC(C)(C)c1ccncc1-2` (configuration not stated), 797 nM.
Take `O=C(Nc1ccc([N+](=O)[O-])cc1Cl)c1cc2ccccc2cc1O`: the XC50 was determined as 1010 nM.
The value for `COc1cccc(CNC[C@@H](O)[C@H](Cc2ccccc2)NC(=O)c2cc(C3CCCC3)cc(N3CCCCS3(=O)=O)c2)c1` was 599 nM; that for `CN(C)CCOc1cc(NC(=O)Nc2ccc(Cl)cc2C(F)(F)F)ccc1I` was 930 nM.
In the case of `Oc1cccc(Nc2nc(NCC3CCCO3)c3ccccc3n2)c1` (configuration not stated), the XC50 amounted to 812 nM.
`CN(CCCCN)Cc1ccc(-c2ccc(Cl)cc2)cc1` gave an XC50 of 882 nM.
To `Cc1sc(CNCCCNc2cc(=O)c3ccccc3[nH]2)cc1Br` belongs 764 nM; to `CNCCNCc1ccc(-c2ccc(-c3nc4ccccc4[nH]3)s2)cc1`, 865 nM.
In the case of `O=C(Nc1ccc2oc(-c3ccc(Cl)cc3Cl)nc2c1)c1ccc([N+](=O)[O-])o1`, the XC50 is 1100 nM.
The value for `CC(C)(C)c1ccc(CNC(=O)/C=C/c2ccc(-c3nc4cc(C(C)(C)C)ccc4[nH]3)cc2)cc1` was 545 nM; that for `Cc1cccc(C=NN=c2cc(C)[nH]c3ccc(F)cc23)n1` was 1000 nM.
To `CC(CNC(=O)C(c1cc2ccccc2o1)N1CCN(C(c2ccccc2)c2ccccc2)CC1)c1ccccc1` (configuration not stated) belongs 626 nM; to `CCN(CC)S(=O)(=O)c1ccc(CCOCCCCCNCC(O)c2cc(Cl)c(N)c(Cl)c2)s1` (configuration not stated), 858 nM; to `CN(C)C(=O)CCCn1c(CNCCCNc2cc(=O)c3ccccc3[nH]2)cc2c(Cl)cc(Cl)cc21`, 1190 nM.
To `CC(C)C1=C[C@H]2C[C@]3(C4OCCO4)[C@@H]4CC[C@@H](C)[C@H]4C[C@@]2(COCc2cccc(C#N)c2)[C@]13C(=O)OC(c1ccccc1)c1ccccc1` belongs 1790 nM.
`O=C(Cc1ccc(NC(=O)c2ccc(O)c(-c3ccc(Cl)c(Cl)c3)c2)cc1)NCCN1CCCCC1` yielded an XC50 of 841 nM.
The value for `Oc1c(Cl)cc(-c2ccccc2)cc1CNC1CCCCC1` was 749 nM.
Molecule `CCOc1cc(C)ccc1NC1CCN(CCCCNC(=O)c2ccc(NC(=O)c3ccc(Cl)cc3)cc2)CC1` came in with an XC50 of 714 nM.
Molecule `O=c1cc(NCCCNCc2scc(I)c2I)[nH]c2ccccc12` yielded an XC50 of 586 nM.
To `Cc1cccc(C)c1CNc1ccnc2cc(Br)ccc12` belongs 172 nM; to `N#Cc1ccc2c(c1)CCN(CCC1CCC(NC(=O)/C=C/c3cnc4ccccc4c3)CC1)CC2` (configuration not stated), 1210 nM.
To `NC(=O)C1CCN(Cc2ccc(-c3ccc(-c4nc5cc(F)ccc5[nH]4)cc3)cc2)CC1` belongs 809 nM; to `COc1ccc(Cl)cc1N1CCN(CCCNC(=O)c2ccc(-c3nc4cc5ccccc5cc4[nH]3)c(F)c2)CC1`, 804 nM; to `Cc1cccc2nc(-c3ccc(-c4cccc(NC(=O)CCc5c[nH]cn5)c4)s3)[nH]c12`, 838 nM.
As for `Fc1ccc(C=NNc2nc3ccccc3[nH]2)cc1`, the XC50 amounted to 783 nM.
To `Oc1cccc(Nc2ccnc3cc(-c4cc5ccccc5o4)ccc23)c1` belongs 763 nM; to `O=C(Nc1cccc(F)c1)NC1CCN(c2ccnc3cc(Cl)ccc23)C1` (configuration not stated), 189 nM.
The value for `CN1CCN(c2cc(-c3cccc(C(F)(F)F)c3)nc(-c3ccncc3)n2)CC1` was 731 nM; that for `CCCCCCn1c(Sc2ccc(C#N)c([N+](=O)[O-])c2)nnc1-c1ccc(N(C)C)cc1` was 1070 nM; that for `Cc1c(CNCCCNc2cc(=O)c3ccccc3[nH]2)sc(C(F)=C(F)F)c1Br` was 836 nM.
To `CN(Cc1cc(C(F)(F)F)cc(C(F)(F)F)c1)C(=O)C1CNCC1c1ccc(F)cc1` (configuration not stated) belongs 828 nM.
Molecule `Oc1ccc(OCc2ccccn2)cc1` displayed an XC50 of 980 nM.
The value for `CCNc1cc(C)nc(Nc2ccc(NS(=O)(=O)c3cc(OC)ccc3OC)cc2)n1` was 853 nM; that for `CCCCCCNC(=O)C1Cc2c([nH]c3ccc(C)cc23)C2(CCN(Cc3ccccc3)CC2)N1` (configuration not stated) was 982 nM.
`CCOc1ccccc1CNc1nccc(NCc2ccccc2OC)n1`: the XC50 is 1490 nM.
In turn, `O=C(Nc1ccc2c(c1)CCN(C1CCC1)CC2)c1ccc(-n2ccnc2)cn1` displayed an XC50 of 373 nM.
Molecule `CCCCCCCCNc1c2ccc(Cl)cc2nc2ccc(OC)cc12` gave an XC50 of 805 nM.
To `Cc1c(Cl)cccc1N=C(S)NN=Cc1ccccn1` belongs 603 nM; to `CCn1ncc2c(N3CCCC3=O)cc(C(=O)N[C@@H](Cc3ccccc3)[C@H](O)CNC(C)(C)c3cccc(C(F)(F)F)c3)cc21`, 149 nM; to `Cc1cccc2nc(-c3cccc(-c4ccc(NC(=O)Nc5cccc(C#N)c5)cc4)c3)[nH]c12`, 187 nM.
The value for `CCCC[C@@H](C(=O)NCCc1ccc(Cl)cc1)N1C(=O)CCC1C(=O)Nc1ccc(Cl)c(Cl)c1` (some centres not stated) was 873 nM.
To `O=c1c2sc(-c3ccc(Cl)cc3)cc2ncn1Cc1ccc(OCCN2CCCC2)c2ccccc12` belongs 252 nM; to `COC(=O)c1ccc(-c2ccc(C(=O)NCC3CCN(c4nc(N)c5cc(OC)c(OC)cc5n4)CC3)cc2)cc1`, 185 nM; to `C[C@H](NC(=O)c1c(CN2CCC(NC(=O)CC(C)(C)C)CC2)c(-c2cccs2)nc2ccccc12)C1CCCCC1`, 947 nM.
The molecule `CN1CCN(c2ccc(Nc3c(C(N)=O)cnc4cc(-c5ccoc5)ccc34)cc2C(F)(F)F)CC1` yielded an XC50 of 785 nM.
For the molecule `Cn1cncc1C(=O)Nc1cccc(-c2ccc(-c3nc4cc(C(F)(F)F)ccc4[nH]3)cc2)c1`, the XC50 was found to be 509 nM.
`O=C(Cc1c[nH]cn1)Nc1ccc(-c2ccc(-c3nc4ccccc4[nH]3)s2)cc1`: the XC50 came out at 1060 nM.
As for `O=C(Nc1ccc(F)c(C(F)(F)F)c1)NC1CCN(CCCCCNC(=O)C2CC2c2ccc(Cl)c(Cl)c2)CC1` (configuration not stated), the XC50 was 663 nM.
The value for `Ic1cc(Nc2ncnc3ccsc23)ccc1OCc1ccccc1` was 773 nM.
The value for `O=C(N[C@H]1CCN(Cc2ccc(OC3CCN(Cc4ccccc4)CC3)c(Br)c2)C1)c1ccc(Cl)c(Cl)c1` was 783 nM; that for `Cc1nnc2c(NC(=O)NC3CCCC3)cc3cc(-c4ccc(CN(C)C)cc4)ccc3n12` was 1470 nM; that for `CN(Cc1ccccc1)C1CCN(c2cc(NC(=O)c3cccc(F)c3)ccn2)CC1` was 1510 nM.
To `CN(C)Cc1ccc(-c2ccc3c(Nc4ccc(Cl)cc4F)ccnc3c2)o1` belongs 241 nM; to `COc1cccc(C2CCN(CCCCNC(=O)c3ccc(NC(=O)c4ccc(Cl)cc4)cc3)CC2)c1`, 965 nM.
`COCCNCc1ccc(-c2cccc(CN(C(=O)CCC3CCCC3)C3CCN(Cc4ccccc4)CC3)c2)cc1` came in with an XC50 of 938 nM.
To `Cc1cc(N[C@@H](Cc2ccccc2)C(=O)NC2CCCC2)nc(NCCCOC(C)C)n1` belongs 1480 nM; to `O=C(Nc1ccc2c(c1)CCCN2S(=O)(=O)c1cccs1)c1cc([N+](=O)[O-])ccc1Cl`, 845 nM.
To `CN(C)CCOC(=O)C1(O)CCC2CC1C2(C)C` (configuration not stated) belongs 984 nM; to `CCCOc1ccc(C(F)(F)F)cc1NC(=O)c1nc2nc(C)cc(C)n2n1`, 251 nM.
